The values below come from ChEMBL document CHEMBL1955743, “Potent inhibitors of LpxC for the treatment of Gram-negative infections” (J Med Chem, 2012).

≈ marks a conversion by molar mass, not a printed value.

For test [1], the system named is Escherichia coli. Kind of test: Antibacterial activity against Escherichia coli after 16 to 20 hrs by broth microdilution method. Type of test: functional.
The subject of test [2] is Pseudomonas aeruginosa. Kind of test: Antibacterial activity against Pseudomonas aeruginosa after 16 to 20 hrs by broth microdilution method. It is filed as functional.
The test system of test [3] is Acinetobacter baumannii. As to the kind of experiment: Antibacterial activity against Acinetobacter baumannii after 16 to 20 hrs by broth microdilution method. Type of test: functional.
Test [4] relates to Staphylococcus aureus. Kind of test: Antibacterial activity against Staphylococcus aureus ATCC 29213 after 16 to 20 hrs by broth microdilution method. It is filed as functional.
Test [5] relates to Klebsiella aerogenes. Kind of test: Antibacterial activity against Enterobacter aerogenes after 16 to 20 hrs by broth microdilution method. It is filed as functional.
Test [6] relates to Klebsiella pneumoniae. As to the kind of experiment: Antibacterial activity against Klebsiella pneumoniae after 16 to 20 hrs by broth microdilution method. It is filed as functional.
The target in test [7] is T1, UDP-3-O-acyl-N-acetylglucosamine deacetylase (Pseudomonas aeruginosa (strain ATCC 15692 / PAO1 / 1C / PRS 101 / LMG12228), UniProt P47205).
T1 sequence (P47205 whole entry): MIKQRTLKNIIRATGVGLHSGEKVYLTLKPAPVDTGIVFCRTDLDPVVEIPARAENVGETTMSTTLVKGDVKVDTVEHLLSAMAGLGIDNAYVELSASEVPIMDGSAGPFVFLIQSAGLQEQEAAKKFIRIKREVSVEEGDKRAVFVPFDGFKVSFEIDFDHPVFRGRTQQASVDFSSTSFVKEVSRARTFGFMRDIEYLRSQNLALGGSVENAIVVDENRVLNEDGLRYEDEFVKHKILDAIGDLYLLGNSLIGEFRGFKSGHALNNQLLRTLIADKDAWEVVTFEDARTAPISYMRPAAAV
As to the kind of experiment: Inhibition of Pseudomonas aeruginosa LpxC using UDP-3-O-(R-hydroxydecanoyl)-N-acetylglucosamine incubated for 30 mins prior to substrate addition measured after 60 mins by mass spectrophotometry.

In test [8] the test system is Pseudomonas aeruginosa. As to the kind of experiment: Antibacterial activity against Pseudomonas aeruginosa PAO1 after 16 to 20 hrs by broth microdilution method. Type of test: functional.
The subject of test [9] is Pseudomonas aeruginosa. As to the kind of experiment: Antibacterial activity against Pseudomonas aeruginosa clinical isolates after 16 to 20 hrs by broth microdilution method. It is filed as functional.
The test system of test [10] is Citrobacter freundii. Kind of test: Antibacterial activity against Citrobacter freundii after 16 to 20 hrs by broth microdilution method. It is filed as functional.

`O=C(O)c1cn(C2CC2)c2cc(N3CCNCC3)c(F)cc2c1=O` [CIPROFLOXACIN]: the MIC90 in test [1] is over 64 µg/mL; in [2], 64 µg/mL (≈ 193 µM); in test [3], 64 µg/mL (≈ 193 µM); in [5], 1 µg/mL (≈ 3.02 µM); in test [6] it was 64 µg/mL (≈ 193 µM). Moreover, the MIC in test [4] worked out at 0.25 µg/mL (≈ 0.754 µM).

As for `C[C@@](CCc1ccc(-c2cccnc2)cc1)(C(=O)NO)S(C)(=O)=O`, the IC50 in [7] came out at 29.7 nM. The MIC was 4 µg/mL (≈ 11.5 µM) in [8] and over 64 µg/mL in test [4].

Turning to `CC(CCc1ccc(-c2ccccc2)cc1)(C(=O)NO)S(=O)(=O)c1ccccc1` (racemic), the 50% inhibitory concentration (IC50) in [7] is over 67.9 nM. The MIC in test [8] is 64 µg/mL (≈ 156 µM); in test [4], 32 µg/mL (≈ 78.1 µM).

In [7], `CC(CCc1ccc(-c2ccc(OCCCNC(=N)N)cc2)cc1)(C(=O)NO)S(C)(=O)=O` (racemic) yielded an IC50 of 9.49 nM. For the same molecule, the MIC in test [8] and in test [4] was 32 µg/mL (≈ 69.2 µM) in each case.

As for `COc1ccccc1-c1ccc(CC[C@](C)(C(=O)NO)S(C)(=O)=O)cc1`, in [7], the IC50 was 7.04 nM. The MIC was 1 µg/mL (≈ 2.65 µM) in [8] and over 64 µg/mL in [4].

Turning to `CC(C)c1cccc(-c2ccc(CC[C@](C)(C(=O)NO)S(C)(=O)=O)cc2)c1`, the IC50 in test [7] is 6.78 nM. For the same molecule, the MIC in [8] is 8 µg/mL (≈ 20.5 µM); in test [4] it was 32 µg/mL (≈ 82.2 µM).

In the case of `CC(COc1ccc(-c2ccccc2)cc1)(C(=O)NO)S(C)(=O)=O` (racemic), the IC50 in [7] was found to be 31.4 nM. Besides, the MIC in test [8] was 4 µg/mL (≈ 11.4 µM); in [4] it was over 64 µg/mL.

Molecule `C[C@@](CCc1ccc(-c2ccccc2F)cc1)(C(=O)NO)S(C)(=O)=O` registered an IC50 in test [7] of 1.36 nM. The minimal inhibitory concentration (MIC) in test [8] came to 0.125 µg/mL (≈ 0.342 µM); in [4] it was 32 µg/mL (≈ 87.6 µM).

`C[C@@](CCc1ccc(-c2ccc(CN)cc2)cc1)(C(=O)NO)S(C)(=O)=O` had an IC50 in [7] of 12.9 nM. Moreover, the MIC in [8] was 1 µg/mL (≈ 2.66 µM); in test [4], over 64 µg/mL.

Turning to `CC(CCc1ccc(OCc2ccncc2)cc1)(C(=O)NO)S(C)(=O)=O` (racemic), in test [7], it took 21.6 nM to reach half-maximal inhibition (IC50). Moreover, the MIC is 4 µg/mL (≈ 10.6 µM) in [8] and over 64 µg/mL in test [4].

For `CC(CSc1ccc(-c2ccccc2)cc1)(C(=O)NO)S(C)(=O)=O` (racemic), the concentration for half-maximal inhibition (IC50) in [7] is 9.04 nM. The minimum inhibitory concentration (MIC) is 2 µg/mL (≈ 5.47 µM) in [8] and 64 µg/mL (≈ 175 µM) in [4].

In test [9], POLYMYXIN B displayed an MIC50 of 0.5 µg/mL and an MIC90 of 1 µg/mL.

As for `C[C@@](CCc1ccc(Sc2ccccc2)cc1)(C(=O)NO)S(C)(=O)=O`, half-maximal inhibition in test [7] (IC50) required 30.4 nM. In addition, the MIC came out at 4 µg/mL (≈ 10.5 µM) in [8] and 64 µg/mL (≈ 169 µM) in test [4].

For the molecule `CC(CCc1ccc(OCc2ccccc2)cc1)(C(=O)NO)S(C)(=O)=O` (racemic), the IC50 in [7] was found to be 5.16 nM. In addition, the MIC was 2 µg/mL (≈ 5.3 µM) in test [8] and over 64 µg/mL in test [4].

Consider `C[C@@](CCc1ccc(-c2cccc(C(N)=O)c2)cc1)(C(=O)NO)S(C)(=O)=O`, for which, in test [7], the 50% inhibitory concentration (IC50) was 27.8 nM. Further, the MIC in [8] is 32 µg/mL (≈ 82 µM); in [4], over 64 µg/mL.

Take `NCC[C@H](O)C(=O)N[C@@H]1C[C@H](N)[C@@H](O[C@H]2O[C@H](CN)[C@@H](O)[C@H](O)[C@H]2O)[C@H](O)[C@H]1O[C@H]1O[C@H](CO)[C@@H](O)[C@H](N)[C@H]1O` [AMIKACIN]: in test [9], the MIC50 was 4 µg/mL (≈ 6.83 µM) and the MIC90 turned out to be 32 µg/mL (≈ 54.6 µM).

On to `C[C@@](CCc1ccc(-c2ccc(Cl)cc2)cc1)(C(=O)NO)S(C)(=O)=O`, for which the half-maximal inhibitory concentration (IC50) in [7] was under 1.05 nM. For the same molecule, the MIC in test [8] is 0.5 µg/mL (≈ 1.31 µM); in test [4], 16 µg/mL (≈ 41.9 µM).

For the molecule `C[C@@](CCc1ccc(-c2ccc(C(=O)O)cc2)cc1)(C(=O)NO)S(C)(=O)=O`, in [7], half-maximal inhibition (IC50) required 73.6 nM. Also, the MIC was 64 µg/mL (≈ 163 µM) in test [8] and over 64 µg/mL in test [4].

For the molecule `CC(C)(O/N=C(\C(=O)N[C@@H]1C(=O)N2C(C(=O)[O-])=C(C[n+]3ccccc3)CS[C@H]12)c1csc(N)n1)C(=O)O` [CEFTAZIDIME], in test [9], the MIC50 came out at 16 µg/mL (≈ 29.3 µM) and the MIC90 was over 64 µg/mL.

`CS(=O)(=O)C(CCc1ccc(-c2ccccc2)cc1)C(=O)NO` (racemic) returned an IC50 in test [7] of 13.8 nM. The results for the MIC in test [8] and in [4] were 1 µg/mL (≈ 3 µM) and over 64 µg/mL, respectively.

`CC(CCc1ccc(OCc2cc[n+]([O-])cc2)cc1)(C(=O)NO)S(C)(=O)=O` (racemic) had an IC50 in test [7] of 92.7 nM. The MIC in test [8] and in [4] was over 64 µg/mL each time.

For `C[C@H]1[C@H](NC(=O)/C(=N\OC(C)(C)C(=O)O)c2csc(N)n2)C(=O)N1S(=O)(=O)O` [AZTREONAM], the MIC90 in [10] is over 64 µg/mL; in test [1], over 64 µg/mL; in test [2], 64 µg/mL (≈ 147 µM); in test [3], 32 µg/mL (≈ 73.5 µM); in test [5], 32 µg/mL (≈ 73.5 µM); in test [6], over 64 µg/mL.

On to `C[C@](CCc1ccc(-c2ccccc2)cc1)(C(=O)NO)S(C)(=O)=O`, for which the minimum inhibitory concentration (MIC) in [8] and in [4] was over 64 µg/mL in each case.

The molecule `CC(CS(=O)(=O)c1ccc(-c2ccccc2)cc1)(C(=O)NO)S(C)(=O)=O` (racemic) yielded a 50% inhibitory concentration (IC50) in test [7] of 11.9 nM. The MIC in test [8] is 4 µg/mL (≈ 10.1 µM); in [4] it was over 64 µg/mL.

With `CC(CCc1ccc(OC2CCCC2)cc1)(C(=O)NO)S(C)(=O)=O` (racemic), in [7], half-maximal inhibition (IC50) was put at 10.1 nM. Also, the values for the MIC in test [8] and in [4] were 4 µg/mL (≈ 11.3 µM) and 64 µg/mL (≈ 180 µM), respectively.

In test [7], `C[C@@](CCc1ccc(-c2cccc(Cl)c2)cc1)(C(=O)NO)S(C)(=O)=O` had an IC50 of 3.54 nM. For the same molecule, the MIC worked out at 0.5 µg/mL (≈ 1.31 µM) in test [8] and 32 µg/mL (≈ 83.8 µM) in test [4].

Turning to `CC(CCc1ccc(-c2ccc(OCCCN)cc2)cc1)(C(=O)NO)S(C)(=O)=O` (racemic), half-maximal inhibition in test [7] (IC50) required 12.7 nM. For the same molecule, the MIC in test [8] was 2 µg/mL (≈ 4.76 µM); in [4], over 64 µg/mL.

In the case of `C[C@@](CCc1ccc(-c2cccc(-n3cccn3)c2)cc1)(C(=O)NO)S(C)(=O)=O`, half-maximal inhibition in test [7] (IC50) required 22.1 nM. Moreover, the MIC in [8] was determined as 32 µg/mL (≈ 77.4 µM); in test [4] it was 64 µg/mL (≈ 155 µM).

The molecule `C[C@@](CCc1ccc(-c2ccccc2C(N)=O)cc1)(C(=O)NO)S(C)(=O)=O` gave an IC50 in test [7] of over 100 nM. Moreover, the minimal inhibitory concentration (MIC) in [8] and in test [4] was over 64 µg/mL each time.

The molecule `COc1ccc(CCC(C)(C(=O)NO)S(C)(=O)=O)cc1` (racemic) returned an IC50 in test [7] of over 100 nM. Moreover, the MIC in test [8] was 16 µg/mL (≈ 53.1 µM); in [4] it was over 64 µg/mL.

`C[C@@](CCc1ccc(-c2ccc(C(N)=O)cc2)cc1)(C(=O)NO)S(C)(=O)=O`: in test [7], the IC50 is under 2.47 nM. Also, the MIC was 2 µg/mL (≈ 5.12 µM) in [8] and over 64 µg/mL in test [4].

`O=C(NO)C1(CCc2ccc(-c3ccccc3)cc2)CCCS1(=O)=O` (racemic) showed an IC50 in test [7] of over 92.5 nM. For the same molecule, the MIC was over 64 µg/mL in test [8] and 64 µg/mL (≈ 178 µM) in test [4].

In the case of `CCc1ccccc1-c1ccc(CC[C@](C)(C(=O)NO)S(C)(=O)=O)cc1`, the IC50 in test [7] came out at 26.1 nM. The MIC in [8] was determined as 8 µg/mL (≈ 21.3 µM); in [4], 32 µg/mL (≈ 85.2 µM).

In turn, `C[C@@](CCc1ccc(-c2ccc(OCCCC(=O)O)cc2)cc1)(C(=O)NO)S(C)(=O)=O` gave an IC50 in test [7] of 21.2 nM. Further, the MIC was 8 µg/mL (≈ 17.8 µM) in test [8] and over 64 µg/mL in test [4].

Molecule `C[C@@](CCc1ccccc1)(C(=O)NO)S(C)(=O)=O` displayed an IC50 in test [7] of over 100 nM. In addition, the MIC in test [8] is 16 µg/mL (≈ 59 µM); in test [4], over 64 µg/mL.
